According to US20210115398A1, “CORNEAL TISSUE CULTURE SYSTEM AND CORNEAL TISSUE CULTURE METHOD THEREOF” (Chang Gung Memorial Hospital, Linkou, priority 2019, published 2021):

Assays:
[1] = system: rabbit corneal endothelial cells; test: Dose-response test: rabbit corneal endothelial cells co-cultivated with rabbit corneal stroma cells; assay type: cell-based; conditions: 20 μmol/L LPA, 5 days of cultivation, co-culture with corneal stroma cells
Method: The tissue culture media (DMEM, 10% FBS, 25 μg/mL gentamycin) added with 0 μmol/L, 10 μmol/L, 20 μmol/L, and 100 μmol/L of LPA were used for co-cultivating the rabbit corneal endothelial cells and the rabbit corneal stroma cells at 37° C. with 5% CO2. After 5 days of cultivation, the cell number of the rabbit corneal endothelial cells of each groups were calculated and shown in FIG. 6. […] According to the result, the tissue culture media used for the following experiments was added with 20 μmol/L LPA.

[2] = system: damaged rabbit corneal endothelium layer; test: Healing effect of the damaged corneal endothelium layer of the corneal tissue (Alizarin Red S staining); assay type: cell-based; conditions: 20 μmol/L LPA
Method: A polyvinylidene fluoride (PVDF) filter membrane with regularly punched-out holes was used to cover the rabbit corneal endothelium layer; exposing the inner damage zone (I) scraped with Cellulose Eye Spears. The rest area of the corneal endothelium layer was defined as the outer damage zone (O). The damaged corneal tissues were placed individually in the tissue culture dishes 100, cultivated with the tissue culture media (DMEM basal medium, 10% FBS, and 25 μg/mL gentamycin) added with 20 μmol/L LPA (Example) or without LPA (Comparative example), and incubated at 37° C. with 5% CO2, wherein a portion of the corneal epithelium layer of the rabbit corneal tissues faced toward the first direction A and contacted with air and the corneal endothelium layer contacted with the tissue culture media. The inner damage zone (I) and the outer damage zone (O) of the corneal tissues on day 0 and day 2 were observed using Alizarin Red S staining. The morphology of the corneal tissue stained by Alizarin Red S was shown in FIG. 12, wherein the stained area (brown color) represented the corneal […] of the inner damage zone (I) and the unstained area represented the corneal endothelial cells of the outer zone (O). […] Refer to FIG. 14, the corneal endothelial cell density of the inner damage zone of the LPA-treated example was 1358±8 0.4 cells/mm^2, and the circularity and aspect ratio of the corneal endothelial cells were 0.68±0.15 and 2.39±1.14. However the corneal endothelial cell density of the inner damage zone of the comparative example was 900.0±198.4 cells/mm^2, and the circularity and aspect ratio of the corneal endothelial cells were 0.43±0.14 and 4.91±2.43. According to the results, the addition of LPA can stimulate cell proliferation of the damaged corneal tissue. Also, LPA enhanced the repopulation of the neighbor corneal endothelial cells to the damage zones.

[3] = system: human corneal stromal cells; test: Cytokine analysis of culture media using human cytokine antibody array; assay type: cell-based; conditions: 20 μmol/L LPA, 2 days
Method: (§1) The gene expression profiling and the cytokine of the human corneal stromal cells were analyzed using cDNA microarray chip and Cytokine Array G5 chip. The human corneal stromal cells were cultured with culture media (DMEM basal medium, 10% FBS, and 25 μg/mL gentamycin) added with 20 μmol/L LPA (served as an Example) or without adding LPA (Comparative example) and incubated at 37° C. with 5% CO2. After 2 days of cultivation, the total RNA from the human corneal stromal cells in example and comparative example were isolated with the TRIzol reagent and purified using RNeasy column. After amplification and labeling the total RNA samples, GeneChip hybridization was performed and a GeneArray G7 scanner was used to scan the results. The culture media from the example and the comparative example were collected and the cytokines were analyzed using a human cytokine antibody array. […] It was confirmed that LPA stimulated the proliferation of the endothelial cells of the corneal tissue via two pathways including directly affecting the endothelial cells and stimulating the secretion of CCL20 and IL-1β from the […].

[4] = system: corneal endothelial cells of transplanted damaged corneal tissue; test: Evaluation of corneal tissue transplantation into rabbit eyes; assay type: in vivo; conditions: damaged cornea cultivated 2 days with 20 μmol/L LPA, day 6
Method: The damaged corneal tissues were prepared using the PVDF filter membrane described above (please refer to the above paragraph). Then, those damaged corneal tissues were placed individually in the tissue culture dishes 100, cultivated with the tissue culture media (DMEM basal medium, 10% FBS, and 25 μg/mL gentamycin) added with 20 μmol/L LPA (Example) or without LPA (Comparative example 1), and incubated at 37° C. with 5% CO2, wherein a portion of the corneal epithelium layer of the rabbit corneal tissues faced toward the first direction A and contacted with air and the corneal endothelium layer contacted with the tissue culture media. After 2 days of cultivation, the damaged corneal tissues were transplanted into rabbit eyes. In addition, total corneal endothelium scrapping and undamaged mock donor corneas were also prepared to serve as comparative examples 2 and 3. External eye photography was taken in the rabbits after transplantation on day 0 and day 6, respectively. Following sacrifice on day 6, the corneal endothelial cells were stained with Alizarin Red S for observations of the cell morphology of the corneal endothelial cells in all density zones (A) (average of high-density and low-density zones) and cell shape in low-density zone (L) were examined. […] Please refer to FIG. 16 showing the analysis of the corneal endothelial cell density, circularity, and aspect ratio. The corneal endothelial cell density of the example was 2200.0±90.1 cells/mm^2, and the circularity and the aspect ratio of the corneal endothelial cells of example 1 were 0.84±0.05 and 1.35±0.02. However, in comparative example 1, the cell density was 1700.0±288.3 cells/mm^2, the circularity was 0.69±0.12, and the aspect ratio was 2.12±1.13.

[5] = system: corneal endothelial cells of human corneal residual tissue; test: Proliferation and morphology of corneal endothelial cells of human corneal residual tissue (ZO-1 and Ki-67 immunostaining); assay type: cell-based; conditions: 20 μmol/L LPA, Day 7, tissue immersed
Method: The cell morphology, cell density, and cell proliferation of the present evaluation were performed through immunostaining.
One-third of the human corneal residual tissue samples were used for immunostaining for ZO-1 directly (Day 0), while the remaining two-thirds were immersed and placed endothelial side up in the tissue culture media (DMEM basal medium, 10% FBS, and 25 μg/mL gentamycin) added with 20 μmol/L LPA (served as an Example) or without adding LPA (Comparative example) and incubated at 37° C. with 5% CO2. 7 days later, the tissues were cut into halves and subjected to immunostaining for ZO-1 and Ki-67 to evaluate the effects of LPA treatment on corneal endothelial cell density and cell proliferation. […] The corneal endothelial cell density of the LPA-treated example and the comparative example were 2848.8 cells/mm^2±331.7 cells/mm^2 and 2004.7 cells/mm^2±220.2 cells/mm^2.

[6] = system: corneal endothelial cells of rabbit corneal tissue; test: Evaluation of the corneal endothelial cell density of the corneal tissue (tissue culture dish 100); assay type: cell-based; conditions: 20 μmol/L LPA
Method: The rabbit corneal tissues were placed individually in the tissue culture dishes 100, cultivated with the tissue culture media (DMEM basal medium, 10% FBS, and 25 μg/mL gentamycin) added with 20 μmol/L LPA (Example) or without LPA (Comparative example), and incubated at 37° C. with 5% CO2, wherein a portion of the corneal epithelium layer of the rabbit corneal tissues faced toward the first direction A and contacted with air and the corneal endothelium layer contacted with the tissue culture media. After 7 days of cultivation, the cell morphology and the analysis of cell density of the corneal endothelium layer were shown in FIG. 7 and FIG. 8. The density of the corneal endothelial cells of the example on day 0 was 3766.7±332.9 cells/mm^2, 4572.2±179.8 cells/mm^2 on day 5, and 4950.0±304.1 cells/mm^2 on day 7. […] According to the result, the corneal endothelial cell density may be increased in the LPA-treated example.

[7] = system: human corneal stromal cells; test: Gene expression analysis using cDNA microarray; assay type: cell-based; conditions: 20 μmol/L LPA, 2 days
Method: as §1

[8] = system: corneal endothelial cells of rabbit corneal tissue; test: Evaluation of the cell proliferation of the corneal tissue (BrdU labeling); assay type: cell-based; conditions: 10 μmol/L LPA, 7 days, BrdU from day 5 to day 7
Method: (§2) The rabbit corneal tissues were placed individually in the tissue culture dishes 100, cultivated with the tissue culture media (DMEM basal medium, 10% FBS, and 25 μg/mL gentamycin) added with 10 μmol/L LPA (Example) or without LPA (Comparative example), and incubated at 37° C. with 5% CO2 for 7 days, wherein a portion of the corneal epithelium layer of the rabbit corneal tissues faced toward the first direction A and contacted with air and the corneal endothelium layer contacted with the tissue culture media. Bromodeoxyuridine (BrdU) was added to the culture media from day 5 to day 7 for observing the proliferation of the cells.

[9] = system: corneal endothelial cells of rabbit corneal tissue; test: Morphology of the corneal endothelial cells of the corneal tissue (ZO-1 immunostaining); assay type: cell-based; conditions: 10 μmol/L LPA, 7 days
Method: as §2, with “The corneal endothelium layer” for “Bromodeoxyuridine (BrdU)”, “immunostained for ZO-1 on” for “added to the culture media from”, “0 and” for “5 to”, “cell morphology” for “proliferation”, “corneal endothelial cells of the corneal tissue.” for “cells.”

Substance: lysophosphatidic acid [LPA]
- corneal endothelial cell proliferation (cell number) [1]: significantly stimulated corneal endothelial cell proliferation
- aspect ratio of the corneal endothelial cells ([2]; day 2, inner damage zone): 2.39±1.14
- circularity of the corneal endothelial cells ([2]; day 2, inner damage zone): 0.68±0.15
- repopulation of the inner damage zone (I) ([2]; two days after tissue cultivation): repopulated by neighbor corneal endothelial cells
- Cytokine content in media: CCL20 [3]: 3.26 fold change
- Cytokine content in media: CSF3 [3]: 0.85 fold change
- Cytokine content in media: IL1A [3]: 0.80 fold change
- Cytokine content in media: IL1B [3]: 1.73 fold change
- aspect ratio of the corneal endothelial cells [4]: 1.35±0.02
- circularity of the corneal endothelial cells [4]: 0.84±0.05
- corneal endothelial cell density [4]: 2200.0±90.1 cells/mm^2
- transparency of the transplanted corneal tissue [4]: remained transparent
- Ki-67-positive cells [5]: 11.86%±2.80%
- corneal endothelial cell density [5]: 2848.8 cells/mm^2
- morphology of corneal endothelial cells (ZO-1) [5]: not altered
- density of the corneal endothelial cells ([6]; day 0): 3766.7±332.9 cells/mm^2
- density of the corneal endothelial cells ([6]; day 5): 4572.2±179.8 cells/mm^2
- density of the corneal endothelial cells ([6]; day 7): 4950.0±304.1 cells/mm^2
- Gene expression in stromal cells: 1L1RN (Interleukin 1 receptor antagonist) [7]: 17.39 fold change
- Gene expression in stromal cells: 1L7R (Interleukin 7 receptor) [7]: 15.03 fold change
- Gene expression in stromal cells: CCL5 [7]: 17.63 fold change
- Gene expression in stromal cells: CCL7 [7]: 11.39 fold change
- Gene expression in stromal cells: CCL8 [7]: 15.89 fold change
- Gene expression in stromal cells: CCL20 [7]: 625.99 fold change
- Gene expression in stromal cells: CSF3 [7]: 85.04 fold change
- Gene expression in stromal cells: CXCL3 [7]: 11.31 fold change
- Gene expression in stromal cells: CXCL5 [7]: 22.32 fold change
- Gene expression in stromal cells: CXCL10 [7]: 20.97 fold change
- Gene expression in stromal cells: EPGN [7]: 10.85 fold change
- Gene expression in stromal cells: ESM1 [7]: 20.11 fold change
- Gene expression in stromal cells: IL1A (Interleukin 1 alpha) [7]: 58.49 fold change
- Gene expression in stromal cells: IL1B [7]: 572.05 fold change
- Gene expression in stromal cells: INHBA [7]: 20.97 fold change
- Gene expression in stromal cells: OLR1 [7]: 24.25 fold change
- BrdU labeling cells [8]: 35.2%±16.1%
- morphology of the corneal endothelial cells (ZO-1) [9]: not altered
